Assay results published in patent US20080139493A1, “Bi- or Tetra-Guanidino-Biphenyl Compounds as Small Molecule Carriers” (priority 2004, published 2008).

Assays:
[1] = tested on: CD3+ cells from peripheral blood mononuclear cells; assay: Delivery of FITC to primary suspension cells, FACS analysis; format: cell-based; conditions: primary human CD3+ cells, 10 µM, 15 minutes
Experimental: To determine whether SMCs deliver small molecules to primary human cells, CD3+ cells were isolated by MACS separation from freshly harvested peripheral blood mononuclear cells. This purified cell population was treated with 10 µM of each compound for 15 minutes. Cells were then washed in PBS and analyzed by FACS.

[2] = tested on: Human osteosarcoma cells (U2OS); assay: Uptake and sub-cellular localization by confocal microscopy; format: cell-based; conditions: 10 μM, 10 minutes incubation, no fixation
Experimental: In order to observe the ability of the di-guanidine and tetra-guanidine compounds to transport small molecules, they were coupled to FITC, which emits light at 514 nm after laser excitation at 492 nm. Human osteosarcoma cells (U2OS) were cultured on glass coverslips and incubated for 10 minutes with each compound to a final concentration of 10 μM. They were compared to FITC conjugated to TAT and FITC alone. After incubation, cells were rinsed in PBS and mounted, without fixation, onto slides and visualized by confocal microscopy. […] Cells were visualized under higher magnification (63×), to assess sub-cellular localization of the FITC.

[3] = tested on: U2OS cells; assay: Delivery of FITC, FACS analysis of live cells; format: cell-based, human; conditions: 10 µM, 15 minutes
Experimental: The efficiency of delivery of FITC by these guanidine carriers was tested by FACS analysis. U2OS cells were treated with at a concentration of 10 µM with each of the compounds indicated for 15 minutes, and then harvested by trypsinization, and washed in PBS. The live cells were then subjected to FACS analysis.

[4] = tested on: NIH3T3 fibroblasts; assay: S-phase assay (cellular DNA synthesis, BrdU incorporation); format: cell-based, mouse
Experimental: (§1) A) NIH3T3 fibroblasts were incubated for one hour with 10 μM recombinant His6-Geminin or 10 μM Geminin-SMC conjugate. Cells were fixed, permeabilised and stained with a polyclonal rabbit anti-Geminin primary, a FITC-conjugated anti-rabbit secondary and counterstained with DAPI. […] B) NIH3T3 fibroblasts were driven into quiescence by density-dependent growth arrest and after 5 days were released back into the cell cycle by subculturing into fresh growth medium. 8 hours after release from quiescence 10 μM of Geminin-SMC was added to the cells. At 21 hours following release cells were pulse-labelled for one hour with 50 μM BrdU. Subsequently cells were fixed, permeabilised and stained with FITC-conjugated anti-BrdU and counterstained with propidium iodide. In a control population 68% of cells were able to re-enter the cell cycle following release whilst in the presence of Geminin-SMC replication dropped by 47% respectively.
Essentially the system is set up as follows: Mouse or human fibroblasts are arrested in quiescence (G0) by contact inhibition.
The quiescent fibroblasts are then subcultured at lower density to release fibroblasts from G0. Re-entry into the DNA synthesis phase (S phase) occurs 21 hours after the release. Pre-replicative complexes (pre-RCs) essential for unwinding of the DNA helix prior to DNA synthesis are assembled at replication origins 16-18 hrs after the release from G0.
One sample of cells is untreated and the other is treated by exposure to an SMC-conjugate according to the present invention. Treatment takes place before pre-RC assembly, preferably at 5-10 hours after release from G0.
The ability of cells to start S phase is monitored with a BrdU pulse at 21 hours. BrdU becomes incorporated into DNA during DNA synthesis and is thus a marker for entry into S phase. BrdU incorporation is then assayed and treated cells are compared with non-treated cells.
For synchronisation in G0, NIH3T3 fibroblasts are seeded at high density and driven into density-dependent growth arrest. […]
DNA synthesis is monitored by pulse labelling cells 21 h after release from G0 for 1 h with 50 μM BrdU. […]
The percentage of cells undergoing DNA replication is determined from images obtained by confocal fluorescence microscopy on a Leica TCS SP confocal microscope. […]
Plasmids expressing […] are microinjected into the nuclei of NIH3T3 fibroblasts at the treatment time 8 hours after release from density-dependent growth arrest in G0. The ability of cells to initiate DNA replication was assessed by pulse labelling cells 19 hours after release from G0 for 1 hour with bromodeoxyuridine (BrdU). Expression of E1̂E4 protein and incorporation of BrdU was monitored by confocal immunofluorescence microscopy. […]

[5] = tested on: NIH3T3 fibroblasts; assay: Uptake of Geminin-SMC conjugate, anti-Geminin immunofluorescence; format: cell-based, mouse; conditions: 10 μM, one hour
Experimental: as §1

## N=C(N)NCCOc1c(CNC(=S)Nc2ccc3c(c2)C(=O)OC32c3ccc(O)cc3Oc3cc(O)ccc32)ccc(-c2ccccc2)c1OCCNC(=N)N [di-guanidine-FITC, 2-[2,3-bis(2-guanidino-ethyloxy)-biphenyl-4-ylmethyl]-thioureido-fluorescein]
[1]
  cells fluorescent: 88%
[2]
  sub-cellular localization of the FITC at higher magnification (63×): both nuclear and cytoplasmic fluorescence
[3]
  cells fluorescent above the background auto-fluorescence: 80%

## N=C(N)NCCOc1cccc(-c2ccc(CNC(=S)Nc3ccc4c(c3)C(=O)OC43c4ccc(O)cc4Oc4cc(O)ccc43)c(OCCNC(=N)N)c2OCCNC(=N)N)c1OCCNC(=N)N [tetra-guanidine-FITC, [2,3,2′,3′-Tetra(2-guanidino-ethyloxy)-biphenyl-4-ylmethyl]-thioureido-fluorescein]
[1]
  cells fluorescent: 62%
[2]
  sub-cellular localization of the FITC at higher magnification (63×): intense nuclear fluorescence
[3]
  cells fluorescent above the background auto-fluorescence: 80%

B1: Geminin-SMC: conjugate of a compound of formula Ic with the pre-RC assembly repressor protein Geminin (209 aa) (conjugate, UniProt O75496 1-209, looked up)
chain: MNPSMKQKQEEIKENIKNSSVPRRTLKMIQPSASGSLVGRENELSAGLSKRKHRNDHLTSTTSSPGVIVPESSENKNLGGVTQESFDLMIKENPSSQYWKEVAEKRRKALYEALKENEKLHKEIEQKDNEIARLKKENKELAEVAEHVQYMAELIERLNGEPLDNFESLDNQEFDSEEETVEDSLVEDSEIGTCAEGTVSSSTDAKPCI
modifications: full-length conjugated to SMC compound of formula Ic
[4]; 10 μM added 8 hours after release from quiescence, BrdU pulse at 21 hours, control population 68% re-entered cell cycle
  drop of replication (BrdU incorporation): 47%
[4]; 10 fM to 10 μM, treatment 8 hours after G0 release
  number of cells entering S phase: dramatic reduction
[4]; treatment 8 hours after G0 release, BrdU pulse at 21 hours, concentration range per example (10 fM to 30 μM)
  DNA synthesis as monitored by S-phase assay: inhibits DNA synthesis
[4]; treatment 8 hours after G0 release, concentration range per example (10 fM to 30 μM)
  uptake of SMC-conjugate into the cells: efficiently taken into the cells
[5]
  FITC staining (anti-Geminin) within the cells: strong FITC staining

B2: His6-Geminin: recombinant His6-Geminin, unconjugated form of Geminin (protein, UniProt O75496 1-209, looked up)
Geminin: B1 chain
modifications: His6 tag
[5]
  FITC staining (anti-Geminin) within the cells: no FITC staining
